Measured values from ChEMBL document CHEMBL1145932, “Design and synthesis of novel bioactive peptides and peptidomimetics” (J Med Chem, 2003).
Activity calls are given as the source filed them. The rule behind the calls is not given here. Numbered stars: 1 amine (or outer) side, 2 acyl side, 3 side chain; on linkers, the order of the positions; unused ones are H or OH. Square brackets hold non-standard residues; d marks the D form. Peptide text beside a SMILES is read from it. * marks the point of attachment. ξ: configuration not given here. Doxorubicin(3'-N) = COc1cccc2c1C(=O)c1c(O)c3c(c(O)c1C2=O)C[C@@](O)(C(=O)CO)C[C@@H]3O[C@H]1C[C@H](N*)[C@H](O)[C@H](C)O1; X2 = COc1cccc2c1C(=O)c1c(O)c3c(c(O)c1C2=O)C[C@@](O)(C(=O)CO)C[C@@H]3O[C@H]1C[C@@H](N*)[C@H](O)[C@H](C)O1; X1 = COc1cccc2c1C(=O)c1c(O)c3c(c(O)c1C2=O)C[C@@](O)(C(=O)CO)C[C@@H]3OC1CC(N*)C(O)C(C)O1; ξPro(4R-OH) = O=C(O)C1C[C@@H](O)CN1; Glutaryl = O=C(CCCC(=O)[*:2])[*:1]; Hyp = O=C(O)[C@@H]1C[C@@H](O)CN1; Chg = N[C@H](C(=O)O)C1CCCCC1; Suc = O=C(CCC(=O)[*:2])[*:1]

What was measured:
[1] = organism: Rattus norvegicus; experiment: Relative potency for the inhibition of glucagon hormone release; assay type: functional
[2] = organism: Rattus norvegicus; experiment: Relative potency for the inhibition of insulin hormone release; assay type: functional
[3] = organism: Rattus norvegicus; experiment: In vitro relative potency for the inhibition of growth hormone release; assay type: functional
[4] = test system: LNCaP; experiment: In vitro effective concentration against LNCaP prostate cancer cell line; assay type: functional, cell-based; conditions: Homo sapiens
[5] = Half life period was determined; assay type: ADME
[6] = test system: DuPro; experiment: In vitro effective concentration against DuPRO cancer cell line; assay type: functional, cell-based; conditions: Homo sapiens
[7] = organism: Rattus norvegicus; experiment: Relative potency for the inhibition of glucagon hormone release; Active; assay type: functional, organism-based
[8] = test system: COLO 320; experiment: In vitro effective concentration against COLO 320 cell line; assay type: functional, cell-based; conditions: Homo sapiens
[9] = test system: Mus musculus; experiment: In vivo percentage reduction of prostate specific antigen (PSA) was determined at a dose of 0.26 umol/kg of the compound; assay type: functional, Prostate gland
[10] = test system: Mus musculus; experiment: In vivo maximum tolerated dose in nude mice was determined; assay type: functional
[11] = test system: Mus musculus; experiment: In vivo percentage weight reduction of tumor was determined at a dose of 0.26 umol/kg of the compound; assay type: functional
[12] = test system: T47D; experiment: In vitro effective concentration against T47D cell line; assay type: functional, cell-based; conditions: Homo sapiens
[13] = organism: Rattus norvegicus; experiment: Relative potency for the inhibition of growth hormone release; assay type: functional
[14] = test system: Mus musculus; experiment: In vivo maximum tolerated dose was determined; assay type: functional

| SMILES | Relative potency [2] | Relative potency [3] | EC50 [4] | half-life [5] | other results |
| --- | --- | --- | --- | --- | --- |
| C[C@@H](O)[C@@H]1NC(=O)[C@H](CCCCN)NC(=O)[C@H](Cc2c[nH]c3ccccc23)NC(=O)[C@H](Cc2ccccc2)NC(=O)CN2CCC[C@H](NC1=O)C2=O | < 0.07 | < 0.005 | – | – | Relative potency [1]: < 0.07 |
| C[C@@H](O)[C@@H]1NC(=O)[C@H](CCCCN)NC(=O)[C@H](Cc2c[nH]c3ccccc23)NC(=O)[C@H](Cc2ccccc2)NC(=O)CN2CCC[C@@H](NC1=O)C2=O | < 0.07 | < 0.005 | – | – | Relative potency [1]: < 0.07 |
| CC[C@]1(O)CC[C@@H]2CN1CCC1c3ccccc3NC1[C@@H](c1cc3c(cc1OC)N(C)C1C34CCN3CC=C[C@](CC)(C34)[C@@H](OC(C)=O)[C@]1(O)C(=O)OC)[C@H]2C(=O)OC (stereo partly specified) | – | – | 0.5 µM | – | – |
| C[C@H](O)[C@H]1NC(=O)[C@@H](Cc2ccccc2)N(C)C(=O)[C@@H](C)NC(=O)[C@@H](Cc2ccccc2)NC(=O)[C@H](Cc2c[nH]c3ccccc23)CNC(=O)[C@@H](CCCCN)NC1=O | – | 0.27 | – | – | – |
| C[C@@H](O)[C@@H]1NC(=O)[C@H](CCCCN)NC(=O)[C@@H](Cc2c[nH]c3ccccc23)NC(=O)[C@H](Cc2ccccc2)NC(=O)CN2CC[C@H](NC1=O)C2=O | < 0.07 | 0.004 | – | – | Relative potency [1]: < 0.07 |
| COc1cccc2c1C(=O)c1c(O)c3c(c(O)c1C2=O)C[C@@](O)(C(=O)CO)C[C@@H]3O[C@H]1C[C@@H](NC(=O)[C@H](CC(C)C)NC(=O)[C@H](CO)NC(=O)[C@H](CCC(N)=O)NC(=O)[C@@H](NC(=O)[C@H](CO)NC(=O)[C@H](C)NC(=O)[C@@H]2C[C@@H](O)CN2C(=O)CCCC(=O)O)C2CCCCC2)[C@H](O)[C@H](C)O1 (Glutaryl-[Hyp]AS[Chg]QSL-X2) | – | – | 5 µM | 30 min | EC50 [6]: > 100 µM |
| COc1cccc2c1C(=O)c1c(O)c3c(c(O)c1C2=O)C[C@@](O)(C(=O)CO)C[C@@H]3O[C@H]1C[C@H](NC(=O)[C@H](CC(C)C)NC(=O)[C@H](CO)NC(=O)[C@H](CO)NC(=O)[C@H](CCC(N)=O)NC(=O)[C@H](Cc2ccc(O)cc2)NC(=O)[C@H](CO)NC(=O)[C@H](C)NC(=O)[C@H](CCCCN)NC(=O)[C@H](CC(N)=O)NC(=O)[C@H](C)NC(C)=O)[C@H](O)[C@H](C)O1 (Ac-ANKASYQSSL-{Doxorubicin(3'-N)}) | – | – | – | 100 min | EC50 [6]: > 100 µM |
| COc1cccc2c1C(=O)c1c(O)c3c(c(O)c1C2=O)C[C@@](O)(C(=O)CO)C[C@@H]3OC1CC(NC(=O)C(N)CC(C)C)C(O)C(C)O1 (stereo partly specified) | – | – | 6.7 µM | – | EC50 [6]: 14 µM |
| C[C@@H](O)[C@@H]1NC(=O)[C@H](CCCCN)NC(=O)[C@@H](Cc2c[nH]c3ccccc23)NC(=O)[C@H](Cc2ccccc2)NC(=O)CN2CC[C@@H](NC1=O)C2=O | < 0.2 | 0.001 | – | – | Relative potency [1]: < 0.2 |
| COc1cccc2c1C(=O)c1c(O)c3c(c(O)c1C2=O)C[C@@](O)(C(=O)CO)C[C@@H]3OC1CC(NC(=O)[C@H](CC(C)C)NC(=O)[C@H](CO)NC(=O)[C@H](CCC(N)=O)NC(=O)[C@H](Cc2ccc(O)cc2)NC(=O)[C@H](CO)NC(=O)[C@H](C)NC(=O)[C@H](CCCCN)NC(C)=O)C(O)C(C)O1 (stereo partly specified) (Ac-KASYQSL-X1) | – | – | – | 30 min | – |
| C[C@@H](O)[C@@H]1NC(=O)[C@H](CCCCN)N(C)C(=O)[C@@H](Cc2c[nH]c3ccccc23)NC(=O)[C@H](Cc2ccccc2)NC(=O)[C@@H]2CCCN2C(=O)[C@H](Cc2ccccc2)NC1=O | 0.5 | 1.6 | – | – | Relative potency [7]: Active |
| C[C@H](N)C(=O)NCC(=O)N[C@H]1CSSC[C@@H](C(=O)O)NC(=O)[C@H](CO)NC(=O)[C@H]([C@@H](C)O)NC(=O)[C@H](Cc2ccccc2)NC(=O)[C@H]([C@@H](C)O)NC(=O)[C@H](CCCCN)NC(=O)[C@H](Cc2c[nH]c3ccccc23)NC(=O)[C@H](Cc2ccccc2)NC(=O)[C@H](Cc2ccccc2)NC(=O)[C@H](CC(N)=O)NC(=O)[C@H](CCCCN)NC1=O [SOMATOSTATIN] | – | 1 | – | – | – |
| COc1cccc2c1C(=O)c1c(O)c3c(c(O)c1C2=O)C[C@@](O)(C(=O)CO)C[C@@H]3OC1CC(NC(=O)[C@H](CC(C)C)NC(=O)[C@H](CO)NC(=O)[C@H](CCC(N)=O)NC(=O)[C@@H](NC(=O)[C@H](CO)NC(=O)[C@H](C)NC(=O)C2C[C@@H](O)CN2C(=O)CCC(=O)O)C2CCCCC2)C(O)C(C)O1 (stereo partly drawn) (Suc-[ξPro(4R-OH)]AS[Chg]QSL-X1) | – | – | 5.7 µM | 55 min | EC50 [6]: 100 µM |
| CC[C@]1(O)CC[C@@H]2CN1CCC1c3ccccc3NC1[C@@H](c1cc3c(cc1OC)N(C)C1C34CCN3CC=C[C@](CC)(C34)[C@@H](O)[C@]1(O)C(=O)OC)[C@H]2C(=O)OC (stereo partly specified) | – | – | 0.1 µM | – | EC50 [8]: 0.2 µM; PSA [9]: 14%; MTD [10]: 0.26 µM/kg; Tumor weight reduction [11]: 16%; EC50 [12]: 150 nM |
| C[C@@H](O)[C@@H]1NC(=O)[C@H](CCCCN)NC(=O)[C@@H](Cc2c[nH]c3ccccc23)NC(=O)[C@H](Cc2ccccc2)NC(=O)[C@H](C)N(C)C(=O)[C@H](Cc2ccccc2)NC1=O | 6 | 3.5 | – | – | Relative potency [1]: 16.7 |
| C[C@@H](O)[C@@H]1NC(=O)[C@H](CCCCN)NC(=O)[C@@H](Cc2c[nH]c3ccccc23)NC(=O)[C@H](Cc2ccccc2)NC(=O)[C@@H]2CSSC[C@H](NC1=O)C(=O)NCCCCCCC(=O)N2 | – | – | – | – | Relative potency [13]: 1.24 |
| C[C@H](O)[C@H]1NC(=O)[C@@H](Cc2ccccc2)N(C)C(=O)[C@@H](C)NC(=O)[C@@H](Cc2ccccc2)NC(=O)[C@@H](Cc2c[nH]c3ccccc23)CNC(=O)[C@H](CCCCN)NC1=O | – | 0.88 | – | – | – |
| C[C@@H](O)[C@@H]1NC(=O)[C@H](CCCCN)NC(=O)[C@@H](Cc2c[nH]c3ccccc23)NC(=O)[C@H](Cc2ccccc2)NC(=O)[C@@H]2CCCN2C(=O)[C@H](Cc2ccccc2)N(C)C1=O | 1.1 | 0.53 | – | – | Relative potency [1]: 2 |
| C[C@H](O)[C@H]1NC(=O)[C@@H](Cc2ccccc2)NC(=O)[C@@H](C)N(C)C(=O)[C@@H](Cc2ccccc2)NC(=O)[C@H](Cc2c[nH]c3ccccc23)CNC(=O)[C@@H](CCCCN)NC1=O | – | 0.003 | – | – | – |
| CC[C@]1(O)CC[C@@H]2CN1CCC1c3ccccc3NC1[C@@H](c1cc3c(cc1OC)N(C)C1C34CCN3CC=C[C@](CC)(C34)[C@@H](OC(=O)[C@@H]3CCCN3C(=O)[C@H](CO)NC(=O)[C@H](CO)NC(=O)[C@H](CCC(N)=O)NC(=O)[C@@H](NC(=O)[C@H](CO)NC(=O)[C@H](CO)NC(=O)[C@@H]3CC(O)CN3C(C)=O)C3CCCCC3)[C@]1(O)C(=O)OC)[C@H]2C(=O)OC (stereo partly specified) | – | – | 1.6 µM | 12 min | EC50 [8]: 14 µM; PSA [9]: 99%; Tumor weight reduction [10]: 85%; MTD [14]: 21.4 µM/kg; EC50 [12]: > 50000 nM |
| COc1cccc2c1C(=O)c1c(O)c3c(c(O)c1C2=O)C[C@@](O)(C(=O)CO)C[C@@H]3OC1CC(NC(=O)[C@H](CC(C)C)NC(=O)[C@H](CO)NC(=O)[C@H](CCC(N)=O)NC(=O)[C@@H](NC(=O)[C@H](CO)NC(=O)[C@H](C)NC(=O)C2C[C@@H](O)CN2C(C)=O)C2CCCCC2)C(O)C(C)O1 (stereo partly drawn) (Ac-[ξPro(4R-OH)]AS[Chg]QSL-X1) | – | – | 4.5 µM | 20 min | EC50 [6]: 100 µM |
| COc1cccc2c1C(=O)c1c(O)c3c(c(O)c1C2=O)C[C@@](O)(C(=O)CO)C[C@@H]3OC1CC(NC(=O)[C@H](CC(C)C)NC(=O)[C@H](CO)NC(=O)[C@H](CCC(N)=O)NC(=O)[C@@H](NC(=O)[C@H](CO)NC(=O)[C@H](C)NC(=O)[C@H](CCCCN)NC(C)=O)C2CCCCC2)C(O)C(C)O1 (stereo partly specified) (Ac-KAS[Chg]QSL-X1) | – | – | – | 10 min | EC50 [6]: > 100 µM |
